# Data published in ChEMBL document CHEMBL1152994, “Plasmid-mediated carbapenem-hydrolyzing beta-lactamase KPC-2 in Klebsiella pneumoniae isolate from Greece” (2008).
# What was measured:
# Escherichia coli [1] = assay: Antibacterial activity against Escherichia coli J53 expressing Klebsiella pneumoniae Greece blaKPC-2 gene by E test method; format: functional
# Escherichia coli [2] = assay: Antibacterial activity against Escherichia coli J53 by E test method; format: functional
# Klebsiella pneumoniae = assay: Antibacterial activity against Klebsiella pneumoniae Greece producing KPC-2 beta-lactamase by E test method; format: functional
# [3] = target: T1, Class A carbapenemase (Klebsiella pneumoniae) (UniProt A9LM97); assay: Activity at Klebsiella pneumoniae Greece Carbapenem-Hydrolyzing-Lactamase KPC-2 assessed per mg of total protein by spectrophotometrically
# T1 sequence (whole entry): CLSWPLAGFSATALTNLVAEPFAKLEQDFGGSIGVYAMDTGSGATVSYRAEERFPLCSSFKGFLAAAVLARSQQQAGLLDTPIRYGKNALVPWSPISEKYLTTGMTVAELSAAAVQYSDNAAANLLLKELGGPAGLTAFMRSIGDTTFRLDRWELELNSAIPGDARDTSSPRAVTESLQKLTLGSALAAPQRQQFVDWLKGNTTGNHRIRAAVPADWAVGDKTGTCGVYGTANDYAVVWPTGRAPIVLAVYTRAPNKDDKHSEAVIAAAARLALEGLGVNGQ
Compound,MIC (Escherichia coli [1]) [µg/mL],MIC (Escherichia coli [2]) [µg/mL],MIC (Klebsiella pneumoniae) [µg/mL],Activity [3] [µmol]
CC1(C)S[C@@H]2[C@H](NC(=O)[C@H](N)c3ccc(O)cc3)C(=O)N2[C@H]1C(=O)O [AMOXICILLIN],> 256,4,> 256,–
C[C@H]1[C@H](NC(=O)/C(=N\OC(C)(C)C(=O)O)c2csc(N)n2)C(=O)N1S(=O)(=O)O [AZTREONAM],16,–,> 256,–
CO/N=C(\C(=O)N[C@@H]1C(=O)N2C(C(=O)[O-])=C(C[N+]3(C)CCCC3)CS[C@H]12)c1csc(N)n1 [CEFEPIME],1.5,0.03,> 256,–
CO/N=C(\C(=O)N[C@@H]1C(=O)N2C(C(=O)O)=C(COC(C)=O)CS[C@H]12)c1csc(N)n1 [CEFOTAXIME],4,0.06,> 32,–
CO[C@@]1(NC(=O)Cc2cccs2)C(=O)N2C(C(=O)O)=C(COC(N)=O)CS[C@@H]21 [CEFOXITIN],4,2,64,–
CC(C)(O/N=C(\C(=O)N[C@@H]1C(=O)N2C(C(=O)[O-])=C(C[n+]3ccccc3)CS[C@H]12)c1csc(N)n1)C(=O)O [CEFTAZIDIME],4,0.06,> 256,–
CC(=O)OCC1=C(C(=O)O)N2C(=O)[C@@H](NC(=O)Cc3cccs3)[C@H]2SC1 [CEPHALOTHIN],> 256,1,> 256,–
C[C@@H](O)[C@H]1C(=O)N2C(C(=O)O)=C(S[C@@H]3CN[C@H](C(=O)Nc4cccc(C(=O)O)c4)C3)[C@H](C)[C@H]12 [ERTAPENEM],0.38,0.03,12,0.05
C[C@@H](O)[C@H]1C(=O)N2C(C(=O)O)=C(SCCNC=N)C[C@H]12 [IMIPENEM ANHYDROUS],1.5,–,12,0.2
C[C@@H](O)[C@H]1C(=O)N2C(C(=O)O)=C(S[C@@H]3CN[C@H](C(=O)N(C)C)C3)[C@H](C)[C@H]12 [MEROPENEM],0.38,0.03,6,0.06
CCN1CCN(C(=O)N[C@@H](C(=O)N[C@@H]2C(=O)N3[C@@H]2SC(C)(C)[C@@H]3C(=O)O)c2ccccc2)C(=O)C1=O [PIPERACILLIN],128,1,> 256,–
CC1(C)S[C@@H]2[C@H](NC(=O)[C@H](C(=O)O)c3ccsc3)C(=O)N2[C@H]1C(=O)O [TICARCILLIN],> 256,2,> 256,–
CN(C)c1cc(NC(=O)CNC(C)(C)C)c(O)c2c1C[C@H]1C[C@H]3[C@H](N(C)C)C(O)=C(C(N)=O)C(=O)[C@@]3(O)C(O)=C1C2=O [TIGECYCLINE],0.5,0.5,3,–
COLISTIN,0.38,0.38,128,–
GENTAMICIN,0.064,0.064,1.5,–
